According to patent US12673961B2 (Agios Pharmaceuticals, Inc., priority 2022, dated 2026):

Biological target: T1, human PAH with the R408W mutation (Homo sapiens, UniProt P00439, R408W)
T1 construct: expressed in transfected cells
T1 sequence (P00439 1-452 R408W): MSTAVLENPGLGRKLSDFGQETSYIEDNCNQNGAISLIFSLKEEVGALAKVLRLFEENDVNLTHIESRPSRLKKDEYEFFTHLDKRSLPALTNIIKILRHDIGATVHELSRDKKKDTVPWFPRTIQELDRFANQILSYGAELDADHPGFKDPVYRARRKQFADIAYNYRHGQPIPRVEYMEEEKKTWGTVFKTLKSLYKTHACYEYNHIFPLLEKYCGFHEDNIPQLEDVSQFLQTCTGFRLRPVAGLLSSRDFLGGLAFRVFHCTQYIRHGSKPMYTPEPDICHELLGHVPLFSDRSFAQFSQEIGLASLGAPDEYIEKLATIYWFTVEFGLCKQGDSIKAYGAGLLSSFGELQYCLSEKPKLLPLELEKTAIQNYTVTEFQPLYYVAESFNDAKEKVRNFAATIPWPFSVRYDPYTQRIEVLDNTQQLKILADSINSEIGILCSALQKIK
Assay: Cell Based Phenylalanine Flux Assay;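 note: Ten-point dose curve from 2-fold serial dilutions, run in duplicate at 0.5% DMSO final, tracer step used 20 µM sepiapterin and 800 µM labeled phenylalanine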
Conditions: A375 cells expressing human R408W PAH; 24 hrs with compound, then sepiapterin and 13C9,15N-Phenylalanine for 4 hours; 13C-Tyrosine by LC-MS; average where tested multiple times; read-out: AC50

SMILES	AC50
Cc1cccn2nc([C@H]3c4nc[nH]c4CCN3C(=O)c3nnc(C4CC4)s3)cc12 [Example 1996, (R)-(5-cyclopropyl-1,3,4-thiadiazol-2-yl)(4-(4-methylpyrazolo[1,5-a]pyridin-2-yl)-1,4,6,7-tetrahydro-5H-imidazo[4,5-c]pyridin-5-yl)methanone]	1000 to 5000 nM
O=C(c1ocnc1C1CC1)N1CCc2[nH]cnc2[C@@H]1c1cc2c(C(F)(F)F)cccn2n1 [Example 2015, (R)-(4-cyclopropyloxazol-5-yl)(4-(4-(trifluoromethyl)pyrazolo [1,5-a]pyridin-2-yl)-1,4,6,7-tetrahydro-5H-imidazo[4,5-c]pyridin-5-yl)methanone]	1000 to 5000 nM
Cc1cccn2nc([C@H]3c4nc[nH]c4CCN3C(=O)c3nc4ccccc4o3)cc12 [Example 2021, (R)-benzo[d]oxazol-2-yl (4-(4-methylpyrazolo[1,5-a]pyridin-2-yl)-1,4,6,7-tetrahydro-5H-imidazo[4,5-c]pyridin-5-yl)methanone]	> 5000 nM
O=C([C@@H]1CC1(F)F)N1CCc2[nH]cnc2[C@H]1c1cc2c(F)cccn2n1 [Example 2030, ((S)-2,2-difluorocyclopropyl) ((S)-4-(4-fluoropyrazolo[1,5-a]pyridin-2-yl)-1,4,6,7-tetrahydro-5H-imidazo[4,5-c]pyridin-5-yl)methanone]	< 500 nM
O=C(c1cnc(-c2ccccn2)o1)N1CCc2[nH]cnc2[C@@H]1c1cc2c(C(F)F)cccn2n1 [Example 2035, (R)-(4-(4-(difluoromethyl)pyrazolo[1,5-a]pyridin-2-yl)-1,4,6,7-tetrahydro-5H-imidazo [4,5-c]pyridin-5-yl)(2-(pyridin-2-yl)oxazol-5-yl)methanone]	> 5000 nM
O=C(c1ocnc1C1CC1)N1CCc2[nH]cnc2[C@@H]1c1cc2c(C(F)F)cccn2n1 [Example 2038, (R)-(4-cyclopropyloxazol-5-yl)(4-(4-(difluoromethyl)pyrazolo [1,5-a]pyridin-2-yl)-1,4,6,7-tetrahydro-5H-imidazo[4,5-c]pyridin-5-yl)methanone]	1000 to 5000 nM
O=C(c1ocnc1C1CC1)N1CCc2[nH]cnc2[C@H]1c1cc2c(C(F)F)cccn2n1 [Example 2039, (S)-(4-cyclopropyloxazol-5-yl)(4-(4-(difluoromethyl)pyrazolo [1,5-a]pyridin-2-yl)-1,4,6,7-tetrahydro-5H-imidazo[4,5-c]pyridin-5-yl)methanone]	< 500 nM
O=C(c1ocnc1C1CC1)N1CCc2[nH]cnc2[C@H]1c1cc2c(Cl)cccn2n1 [Example 2040, (S)-(4-(4-chloropyrazolo [1,5-a]pyridin-2-yl)-1,4,6,7-tetrahydro-5H-imidazo [4,5-c]pyridin-5-yl)(4-cyclopropyloxazol-5-yl) methanone]	< 500 nM
O=C(c1nc2ccccc2o1)N1CCc2[nH]cnc2[C@H]1c1cc2c(F)cccn2n1 [Example 2050, (S)-benzo[d]oxazol-2-yl (4-(4-fluoropyrazolo[1,5-a]pyridin-2-yl)-1,4,6,7-tetrahydro-5H-imidazo[4,5-c]pyridin-5-yl)methanone]	< 500 nM
CC(C)(F)c1nnc(C(=O)N2CCc3[nH]cnc3[C@@H]2c2cc3c(C4CC4)cccn3n2)o1 [Example 2060]	> 5000 nM
Fc1cccc(F)c1-c1nnc(N2CCc3[nH]cnc3[C@@H]2c2cc3c(Cl)cccn3n2)o1 [Example 2062, (R)-2-(4-(4-chloropyrazolo [1,5-a]pyridin-2-yl)-1,4,6,7-tetrahydro-5H-imidazo [4,5-c]pyridin-5-yl)-5-(2,6-difluorophenyl)-1,3,4-oxadiazole]	> 5000 nM
CC(C)(F)c1ncc(C(=O)N2CCc3[nH]cnc3[C@H]2c2cc3c(F)cccn3n2)o1 [Example 2064, (S)-(2-(2-fluoropropan-2-yl)oxazol-5-yl)(4-(4-fluoropyrazolo[1,5-a]pyridin-2-yl)-1,4,6,7-tetrahydro-5H-imidazo[4,5-c]pyridin-5-yl)methanone]	< 500 nM
Cc1c(-c2ncc(C(=O)N3CCc4[nH]cnc4[C@@H]3c3cc4c(C(F)F)cccn4n3)o2)cnn1C [Example 2069, (R)-(4-(4-(difluoromethyl)pyrazolo[1,5-a]pyridin-2-yl)-1,4,6,7-tetrahydro-5H-imidazo [4,5-c]pyridin-5-yl)(2-(1,5-dimethyl-1H-pyrazol-4-yl)oxazol-5-yl)methanone]	> 5000 nM
Cc1cccc2cc([C@@H]3c4nc[nH]c4CCN3c3ccc(C(F)(F)F)cn3)nn12 [Example 2097, (S)-4-(7-methylpyrazolo [1,5-a]pyridin-2-yl)-5-(5-(trifluoromethyl)pyridin-2-yl)-4,5,6,7-tetrahydro-1H-imidazo[4,5-c]pyridine]	500 to 1000 nM

Second part, the compound after the results:

AC50	SMILES
> 5000 nM	Cc1cccc2cc([C@H]3c4nc[nH]c4CCN3C(=O)c3ocnc3C3CC3)nn12 [Example 2071, (R)-(4-cyclopropyloxazol-5-yl)(4-(7-methylpyrazolo[1,5-a]pyridin-2-yl)-1,4,6,7-tetrahydro-5H-imidazo[4,5-c]pyridin-5-yl)methanone]
1000 to 5000 nM	Cc1cccn2nc([C@H]3c4nc[nH]c4CCN3C(=O)c3oc(-c4cnn(C)c4)nc3C3CC3)cc12 [Example 2075]
> 5000 nM	O=C(C1CCC1)N1CCc2[nH]cnc2[C@@H]1c1cc2c(F)cccn2n1 [Example 2081, (R)-cyclobutyl(4-(4-fluoropyrazolo[1,5-a]pyridin-2-yl)-1,4,6,7-tetrahydro-5H-imidazo[4,5-c]pyridin-5-yl)methanone]
> 5000 nM	Fc1ccc(-c2nnc(N3CCc4[nH]cnc4[C@@H]3c3cc4cccc(Cl)n4n3)o2)cc1 [Example 2087, (R)-2-(4-(7-chloropyrazolo [1,5-a]pyridin-2-yl)-1,4,6,7-tetrahydro-5H-imidazo [4,5-c]pyridin-5-yl)-5-(4-fluorophenyl)-1,3,4-oxadiazole]
> 5000 nM	Fc1cccc(F)c1-c1nnc(N2CCc3[nH]cnc3[C@@H]2c2cc3cccc(Cl)n3n2)o1 [Example 2088, (R)-2-(4-(7-chloropyrazolo [1,5-a]pyridin-2-yl)-1,4,6,7-tetrahydro-5H-imidazo [4,5-c]pyridin-5-yl)-5-(2,6-difluorophenyl)-1,3,4-oxadiazole]
> 5000 nM	Cc1cccc2cc([C@H]3c4nc[nH]c4CCN3c3nnc(-c4c(F)cccc4F)o3)nn12 [Example 2090, (R)-2-(2,6-difluorophenyl)-5-(4-(7-methylpyrazolo[1,5-a]pyridin-2-yl)-1,4,6,7-tetrahydro-5H-imidazo[4,5-c]pyridin-5-yl)-1,3,4-oxadiazole]
< 500 nM	CC(C)(C)c1ncc(C(=O)N2CCc3[nH]cnc3[C@H]2c2cc3c(F)cccn3n2)o1 [Example 2100, (S)-(2-(tert-butyl)oxazol-5-yl)(4-(4-fluoropyrazolo[1,5-a]pyridin-2-yl)-1,4,6,7-tetrahydro-5H-imidazo[4,5-c]pyridin-5-yl)methanone]
500 to 1000 nM	Cn1cc(-c2nc(C3CC3)c(C(=O)N3CCc4[nH]cnc4[C@H]3c3cc4c(C(F)F)cccn4n3)o2)cn1 [Example 2114, (S)-(4-cyclopropyl-2-(1-methyl-1H-pyrazol-4-yl)oxazol-5-yl)(4-(4-(difluoromethyl)pyrazolo[1,5-a]pyridin-2-yl)-1,4,6,7-tetrahydro-5H-imidazo[4,5-c]pyridin-5-yl)methanone]
